Assay results from the supplement of paper PMC10307832.

Columns and labels:
Assay in all cases: relative viability (nuclei count vs DMSO), 5 days (fraction); higher = more cells survive
[1] = compound: Cn1cc(-c2cnn3c(N)c(Br)c([C@@H]4CCCNC4)nc23)cn1 + CC1(C)CCC(c2ccc(Cl)cc2)=C(CN2CCN(c3ccc(C(=O)NS(=O)(=O)c4ccc(N[C@H](CCN5CCOCC5)CSc5ccccc5)c(S(=O)(=O)C(F)(F)F)c4)cc3)CC2)C1 [Navitoclax] (partner 0.5 µM)
In short: (§1)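 Relative viability was taken as the ratio of nuclei in treated wells to nuclei in vehicle wells. Lung cancer cell lines in 1536-well plates received compounds by pin tool one day after seeding, either one drug alone or a fixed anchor-drug dose plus five library-drug doses (not always all listed) in √10 steps. Nuclei were counted on 4× images after 5 days of treatment, and values are medians of duplicate plates.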

[2] = compound: Cn1cc(-c2cnn3c(N)c(Br)c([C@@H]4CCCNC4)nc23)cn1 + CCNC(=O)c1noc(-c2cc(C(C)C)c(O)cc2O)c1-c1ccc(CN2CCOCC2)cc1 [Luminespib] (partner 0.01 µM)
In short: as §1

[3] = compound: Cn1cc(-c2cnn3c(N)c(Br)c([C@@H]4CCCNC4)nc23)cn1 + COc1cc2c(Oc3ccc(NC(=O)C4(C(=O)Nc5ccc(F)cc5)CC4)cc3F)ccnc2cc1OCCCN1CCOCC1 [Foretinib] (partner 0.25 µM)
In short: as §1

[4] = compound: Cn1cc(-c2cnn3c(N)c(Br)c([C@@H]4CCCNC4)nc23)cn1 + C[C@]1(O)C[C@@H](c2nc(-c3ccc4ccc(-c5ccccc5)nc4c3)c3c(N)nccn32)C1 [Linsitinib] (partner 1 µM)
In short: as §1

Cell Line	relative viability ([1]; first compound 0.05 µM)	relative viability ([1]; first compound 0.1581 µM)	relative viability ([1]; first compound 0.5 µM)	relative viability ([1]; first compound 1.581 µM)	relative viability ([1]; first compound 5 µM)	relative viability ([2]; first compound 0.05 µM)	relative viability ([2]; first compound 0.1581 µM)	relative viability ([2]; first compound 0.5 µM)	relative viability ([2]; first compound 1.581 µM)	relative viability ([2]; first compound 5 µM)	relative viability ([3]; first compound 0.05 µM)	relative viability ([3]; first compound 0.1581 µM)	relative viability ([3]; first compound 0.5 µM)	relative viability ([3]; first compound 1.581 µM)	relative viability ([3]; first compound 5 µM)	relative viability ([4]; first compound 0.05 µM)	relative viability ([4]; first compound 0.1581 µM)	relative viability ([4]; first compound 0.5 µM)	relative viability ([4]; first compound 1.581 µM)	relative viability ([4]; first compound 5 µM)
NCI-H647	1.25	1.11	0.902	0.853	0.406	0.232	0.262	0.127	0.106	0.104	1.17	1.27	1.25	1.01	0.416	1.12	1.24	0.85	0.796	0.42
NCI-H727	0.4	0.43	0.333	0.463	0.212	0.345	0.412	0.315	0.354	0.343	0.949	0.905	0.967	0.882	0.527	0.189	0.261	0.235	0.289	0.236
NCI-H838	1.15	1.21	1.08	1.08	1.16	0.346	0.252	0.261	0.225	0.222	1.1	1.2	1.01	1.11	0.965	0.984	1.09	0.987	0.824	0.962
NCI-H1355	0.964	0.945	0.926	0.986	0.857	0.691	0.662	0.699	0.609	0.735	1.05	1.21	0.967	0.89	0.955	0.798	0.911	0.738	0.82	0.814
NCI-H1395	1.18	0.698	0.953	0.68	0.423	0.762	0.536	0.687	0.349	0.379	0.99	0.94	0.914	0.589	0.455	1.19	0.679	1.11	0.616	0.431
NCI-H1437	1.15	1.25	1.05	1.03	1.08	1.13	1.2	1.19	0.932	0.861	1.24	1.4	1.41	1.32	1.19	1.17	1.16	0.954	0.604	0.821
NCI-H1651	1.06	1.36	0.865	0.555	0.408	0.721	0.767	0.848	0.327	0.195	0.828	1	0.887	0.496	0.213	0.949	0.977	0.869	0.574	0.356
NCI-H1666	0.906	0.956	0.871	0.829	0.842	0.971	1.02	0.906	0.958	0.917	0.936	1.05	0.888	1.05	0.919	0.896	0.745	0.653	0.714	0.711
